# Data published in PubChem BioAssay AID330 (DTP/NCI, 2004).
# Several values for one entry are separate records, joined by “and”; a condition that tells them apart may be missing. Equal entries are not always repeated. Toxic doses and inconclusive results are not listed.
# Tested on: P388 leukemia ip, CD2F1 mice, survival T/C
# Assay: NCI In Vivo Anticancer Drug Screen. Data for tumor model P388 Leukemia (intraperitoneal) in CD2F1 (CDF1) mice
# Conditions: endpoint: median survival time, higher = longer survival
# Description: The antitumor activity of compounds was measured in mice bearing transplantable tumors. Survival or tumor size were measured and the results are expressed as the measurement made in the treated group (T) divided by the measurement made in the vehicle treated control group (C). The tumor model used in this assay is P388 Leukemia (intraperitoneal) in CD2F1 (CDF1) mice
# [1] = dose: 25.0 mg/kg/injection, schedule: Q01DX005 (ip), vehicle: Klucel (hydroxypropylcellulose) (HPC)
# [2] = dose: 50.0 mg/kg/injection, schedule: Q01DX005 (ip), vehicle: Klucel (hydroxypropylcellulose) (HPC)
# [3] = dose: 100.0 mg/kg/injection, schedule: Q01DX005 (ip), vehicle: Klucel (hydroxypropylcellulose) (HPC)
# [4] = dose: 200.0 mg/kg/injection, schedule: Q01DX005 (ip), vehicle: Klucel (hydroxypropylcellulose) (HPC)
# [5] = dose: 25.0 mg/kg/injection, schedule: Q04DX003 (ip), vehicle: saline with Tween-80
# [6] = dose: 50.0 mg/kg/injection, schedule: Q04DX003 (ip), vehicle: saline with Tween-80
# [7] = dose: 100.0 mg/kg/injection, schedule: Q04DX003 (ip), vehicle: saline with Tween-80
# [8] = dose: 50.0 mg/kg/injection, schedule: Q01DX005 (ip), vehicle: saline
# [9] = dose: 100.0 mg/kg/injection, schedule: Q01DX005 (ip), vehicle: saline
# [10] = dose: 200.0 mg/kg/injection, schedule: Q01DX005 (ip), vehicle: saline
# [11] = dose: 100.0 mg/kg/injection, schedule: Q01DX009 (ip), vehicle: saline with Tween-80
# [12] = dose: 50.0 mg/kg/injection, schedule: Q01DX005 (ip), vehicle: saline with Tween-80
# [13] = dose: 100.0 mg/kg/injection, schedule: Q01DX005 (ip), vehicle: saline with Tween-80
# [14] = dose: 25.0 mg/kg/injection, schedule: Q01DX009 (ip), vehicle: saline
# [15] = dose: 50.0 mg/kg/injection, schedule: Q01DX009 (ip), vehicle: saline
# [16] = dose: 200.0 mg/kg/injection, schedule: Q01DX005 (ip), vehicle: saline with Tween-80
structure (smiles),measurement,setting,value
O=[N+]([O-])c1ccc(N/N=C\c2cccc3c(/C=N/Nc4ccc([N+](=O)[O-])cc4[N+](=O)[O-])c(Cl)n(-c4ccccc4)c23)c([N+](=O)[O-])c1,T/C,"dose: 25.0 mg/kg/injection, schedule: Q01DX001 (ip), vehicle: Klucel (hydroxypropylcellulose) (HPC)",102 % of control
same,T/C,"dose: 50.0 mg/kg/injection, schedule: Q01DX001 (ip), vehicle: Klucel (hydroxypropylcellulose) (HPC)",95 % of control
same,T/C,"dose: 100.0 mg/kg/injection, schedule: Q01DX001 (ip), vehicle: Klucel (hydroxypropylcellulose) (HPC)",93 % of control
CC(=NCCCCN=C(C)c1cc(C)cc(Br)c1O)c1cc(C)cc(Br)c1O.[Co],T/C,"dose: 6.25 mg/kg/injection, schedule: Q01DX005 (ip), vehicle: Klucel (hydroxypropylcellulose) (HPC)",99 % of control and 104 % of control
same,T/C,"dose: 12.5 mg/kg/injection, schedule: Q01DX005 (ip), vehicle: Klucel (hydroxypropylcellulose) (HPC)",100 % of control and 106 % of control
same,T/C,[1],101 % of control and 109 % of control and 283 % of control
same,T/C,[2],98 % of control and 109 % of control and 283 % of control
same,T/C,[3],106 % of control and 97 % of control
same,T/C,[4],97 % of control
Cc1ccc2nc3ccccc3cc2c1,T/C,[5],104 % of control
same,T/C,[6],100 % of control
same,T/C,[7],95 % of control
same,T/C,"dose: 200.0 mg/kg/injection, schedule: Q04DX003 (ip), vehicle: saline with Tween-80",99 % of control
O=C(Nc1ccc(C2=NCCN2)c(O)c1)c1cccc(C(=O)Nc2ccc(C3=NCCN3)c(O)c2)c1,T/C,[1],97 % of control
same,T/C,[2],97 % of control
same,T/C,[3],97 % of control
same,T/C,[4],102 % of control
CCN(CC)CCNC1=C(Cl)C(=O)c2ccccc2C1=O,T/C,"dose: 1.56 mg/kg/injection, schedule: Q01DX009 (ip), vehicle: saline",95 % of control
same,T/C,"dose: 3.13 mg/kg/injection, schedule: Q01DX009 (ip), vehicle: saline",96 % of control
same,T/C,"dose: 6.25 mg/kg/injection, schedule: Q01DX009 (ip), vehicle: saline",96 % of control
same,T/C,"dose: 12.5 mg/kg/injection, schedule: Q01DX009 (ip), vehicle: distilled water + Tween-80",100 % of control
same,T/C,"dose: 12.5 mg/kg/injection, schedule: Q01DX009 (ip), vehicle: saline",101 % of control
CN(C)CC1CCCC(CN(C)C)C1O (centres undefined),T/C,[8],99 % of control
same,T/C,[9],94 % of control
same,T/C,[10],93 % of control
CC1SC(C)C1O (centres undefined),T/C,"dose: 60.0 mg/kg/injection, schedule: Q01DX005 (ip), vehicle: saline",104 % of control
same,T/C,"dose: 120.0 mg/kg/injection, schedule: Q01DX005 (ip), vehicle: saline",108 % of control
same,T/C,"dose: 240.0 mg/kg/injection, schedule: Q01DX005 (ip), vehicle: saline",93 % of control
CCCc1cc(=O)[nH]c(Sc2c([N+](=O)[O-])ncn2C)n1,T/C,"dose: 50.0 mg/kg/injection, schedule: Q01DX009 (ip), vehicle: saline with Tween-80",103 % of control
same,T/C,[11],95 % of control
same,T/C,"dose: 200.0 mg/kg/injection, schedule: Q01DX009 (ip), vehicle: saline with Tween-80",91 % of control
Cc1ccccc1-n1c(=S)n(-c2ccccn2)c2nc3ccccc3nc1/c2=N/Nc1ccccn1,T/C,[12],110 % of control
same,T/C,[13],97 % of control
O=c1n(-c2ccccc2)c(=O)n2n1C1C3C4C3C2C2(F)C4C12 (centres undefined),T/C,"dose: 3.0 mg/kg/injection, schedule: Q04DX002 (ip), vehicle: Klucel (hydroxypropylcellulose) (HPC)",95 % of control
same,T/C,"dose: 6.0 mg/kg/injection, schedule: Q04DX002 (ip), vehicle: Klucel (hydroxypropylcellulose) (HPC)",101 % of control
same,T/C,"dose: 12.5 mg/kg/injection, schedule: Q04DX002 (ip), vehicle: Klucel (hydroxypropylcellulose) (HPC)",108 % of control
CC(/C=N/N=C(N)N)=N/N=C(N)N,T/C,[14],120 % of control
same,T/C,"dose: 25.0 mg/kg/injection, schedule: Q04DX003 (ip), vehicle: saline",100 % of control
same,T/C,[15],150 % of control
same,T/C,"dose: 50.0 mg/kg/injection, schedule: Q04DX003 (ip), vehicle: saline",100 % of control
same,T/C,"dose: 75.0 mg/kg/injection, schedule: Q01DX009 (ip), vehicle: saline",170 % of control
same,T/C,[11],86 % of control
COc1cc2c(cc1OC)C(CC1CCN(C)CC1)NCC2 (centres undefined),T/C,[8],106 % of control
same,T/C,[9],103 % of control
same,T/C,[10],103 % of control
Cc1nn(CCO)c(-c2ccccc2)c1-n1on1-c1c(C)nn(CCO)c1-c1ccccc1,T/C,[14],97 % of control
same,T/C,[15],98 % of control
same,T/C,"dose: 100.0 mg/kg/injection, schedule: Q01DX009 (ip), vehicle: saline",98 % of control
Cc1nc2scc(-c3ccccc3)n2c(=O)c1CN1CCOCC1,T/C,"dose: 37.5 mg/kg/injection, schedule: Q04DX002 (ip), vehicle: Klucel (hydroxypropylcellulose) (HPC)",106 % of control
same,T/C,"dose: 75.0 mg/kg/injection, schedule: Q04DX002 (ip), vehicle: Klucel (hydroxypropylcellulose) (HPC)",97 % of control
same,T/C,"dose: 150.0 mg/kg/injection, schedule: Q04DX002 (ip), vehicle: Klucel (hydroxypropylcellulose) (HPC)",103 % of control
Cn1c(=O)oc2c(Br)cc(Br)cc21,T/C,"dose: 50.0 mg/kg/injection, schedule: Q04DX002 (ip), vehicle: Klucel (hydroxypropylcellulose) (HPC)",101 % of control
same,T/C,"dose: 100.0 mg/kg/injection, schedule: Q04DX002 (ip), vehicle: Klucel (hydroxypropylcellulose) (HPC)",104 % of control
same,T/C,"dose: 200.0 mg/kg/injection, schedule: Q04DX002 (ip), vehicle: Klucel (hydroxypropylcellulose) (HPC)",101 % of control
O=c1[nH]c(=S)[nH]nc1/C=C/c1cccc(I)c1,T/C,"dose: 12.5 mg/kg/injection, schedule: Q04DX002 (ip), vehicle: saline",100 % of control
same,T/C,"dose: 25.0 mg/kg/injection, schedule: Q04DX002 (ip), vehicle: saline",100 % of control
same,T/C,"dose: 50.0 mg/kg/injection, schedule: Q04DX002 (ip), vehicle: saline",100 % of control
same,T/C,"dose: 200.0 mg/kg/injection, schedule: Q04DX002 (ip), vehicle: saline",106 % of control
FC(F)(F)c1cc(NC(=S)SCc2ccc(Cl)cc2)ccc1Cl,T/C,"dose: 50.0 mg/kg/injection, schedule: Q01DX009 (ip), vehicle: suspension in saline",103 % of control
same,T/C,"dose: 100.0 mg/kg/injection, schedule: Q01DX009 (ip), vehicle: suspension in saline",90 % of control
same,T/C,"dose: 200.0 mg/kg/injection, schedule: Q01DX009 (ip), vehicle: suspension in saline",93 % of control
CN1CC2c3cc4c(cc3CC1c1cc3c(cc12)OCO3)OCO4 (centres undefined),T/C,"dose: 100.0 mg/kg/injection, schedule: Q01DX001 (ip), vehicle: saline with Tween-80",108 % of control
same,T/C,"dose: 200.0 mg/kg/injection, schedule: Q01DX001 (ip), vehicle: saline with Tween-80",108 % of control
COC(=O)NC(=S)Nc1nnc(C)s1,T/C,[5],103 % of control
same,T/C,[6],256 % of control
same,T/C,[7],105 % of control
C[C@]12CC[C@@H]3c4ccc(OCCCO)c([N+](=O)[O-])c4CC[C@H]3[C@@H]1CCC2=O,T/C,"dose: 25.0 mg/kg/injection, schedule: Q01DX005 (ip), vehicle: saline with Tween-80",100 % of control
same,T/C,[12],106 % of control
same,T/C,[13],91 % of control
same,T/C,[16],88 % of control
CCCCCCCCCCCCOC(=O)c1ccc(Br)cc1,T/C,"dose: 100.0 mg/kg/injection, schedule: Q01DX009 (ip), vehicle: Klucel (hydroxypropylcellulose) (HPC)",104 % of control
same,T/C,"dose: 200.0 mg/kg/injection, schedule: Q01DX009 (ip), vehicle: Klucel (hydroxypropylcellulose) (HPC)",102 % of control
CC(NC(=O)c1ccc(Cl)cc1Cl)c1ccccc1 (centres undefined),T/C,"dose: 50.0 mg/kg/injection, schedule: Q01DX001 (ip), vehicle: other",98 % of control
same,T/C,"dose: 100.0 mg/kg/injection, schedule: Q01DX001 (ip), vehicle: other",97 % of control
same,T/C,"dose: 200.0 mg/kg/injection, schedule: Q01DX001 (ip), vehicle: other",96 % of control
same,T/C,"dose: 400.0 mg/kg/injection, schedule: Q01DX001 (ip), vehicle: other",94 % of control
NC(=O)c1oc([N+](=O)[O-])c(-c2ccccc2)c1-c1ccccc1,T/C,[12],99 % of control
same,T/C,[13],102 % of control
same,T/C,[16],93 % of control
COC(=O)c1nn(C)c(=O)[nH]c1=O,T/C,[12],103 % of control
same,T/C,[13],98 % of control
same,T/C,[16],100 % of control
N#CC1N(C(=O)Oc2ccccc2)c2ccccc2N1C(=O)Oc1ccccc1,T/C,"dose: 7.5 mg/kg/injection, schedule: Q01DX005 (ip), vehicle: saline with Tween-80",92 % of control
same,T/C,"dose: 15.0 mg/kg/injection, schedule: Q01DX005 (ip), vehicle: saline with Tween-80",91 % of control
